According to patent publication US10745399B2 (priority 2015, dated 2020):
Read-outs that look alike come from different tables or passages of the source.

Experiments:
human recombinant ATM = human recombinant ATM (Homo sapiens (Human), UniProt Q13315); test: ATM kinase assay (IC50 ATM), TR-FRET; assay type: biochemical
Protocol: ATM Kinase Assay—Determination of ATM Inhibition (IC50 ATM):
The IC50 value was determined with the aid of a biochemical ATM kinase assay. The assay consists of two steps: the enzymatic reaction and the detection step. Firstly, ATM (ataxia telangiectasia mutated) protein and the test substance are incubated at different concentrations with addition of substrate protein p53 and ATP. ATM mediates the phosphorylation of p53 at several positions, including at amino acid S15. The amount of phosphorylated p53 is determined with the aid of specific antibodies and the TR-FRET technique. The enzymatic ATM assay is carried out as TR-FRET (HTRF™, Cisbio Bioassays) based 384-well assay. In the first step, purified human recombinant ATM (human ATM, full length, GenBank ID NM_000051, expressed in a mammal cell line) is incubated in assay buffer for 15 minutes with the ATM inhibitor in various concentrations and without test substance as negative or neutral control. The assay buffer comprises 25 mM HEPES pH 8.0, 10 mM Mg(CH3COO)2, 1 mM MnCl2, 0.1% BSA and 0.01% Brij® 35, 5 mM dithiothreitol (DTT). […] In the second step, purified human recombinant cmyc-labelled p53 (human p53, full length, GenBank ID BC003596, expressed in Sf21 insect cells) and ATP are added, and the reaction mixture is incubated at 22° C. for 30-35 minutes. The pharmacologically relevant assay volume is 5 μl. […] The enzymatic reaction is stopped by addition of EDTA. […] After incubation, usually for 2 hours (between 1.5 and 15 h), for signal development, the plates are analysed in a plate reader (EnVision, PerkinElmer) using TRF mode (and with laser excitation). […] The measurement data were processed by means of Genedata Screener software. IC50 determinations are carried out, in particular, by fitting a dose/action curve to the data points by means of nonlinear regression analysis.

[1] = system: CHK2 phosphorylation (phospho-Thr68) in HCT116 cells; test: Cellular pCHK2 assay, bleomycin-induced phosphorylation of CHK2 (phospho-Thr68), immunofluorescence high content; assay type: cell-based; settings: Homo sapiens, HCT-116, 4 h, read-out: IC50 (pCHK2)
mTOR (human) = mTOR (human) (Homo sapiens (Human), UniProt P42345); test: mTOR (human) radiometric kinase assay; assay type: biochemical
Protocol: mTOR (human) was incubated with 50 mM HEPES pH 7.5, 1 mM EGTA, 0.01% Tween 20, 2 mg/ml of the substrate, 3 mM MnCl2 and [γ-^33P-ATP] (specific activity approximately 500 cpm/pmol, concentration as necessary). The reaction was initiated by addition of MgATP solution. After incubation at room temperature for 40 minutes, the reaction was stopped by addition of 3% phosphoric acid. 10 μl of the reaction solution were then transferred dropwise onto a P30 filtermat and washed three times for 5 min in 75 mM phosphoric acid and once in methanol, dried and evaluated by means of liquid scintillation counting.

PI3K p110α/p85α (human) = PI3K p110α/p85α (human) (Homo sapiens (Human), UniProt P42336); test: PI3K p110α/p85α (human), non-radioactive assay (HTRF); assay type: biochemical; settings: read-out: IC50 (PI3Kalpha)
Protocol: (§1) The reaction was initiated by addition of MgATP solution. After incubation at room temperature for 40 minutes, the reaction was stopped by addition of a solution consisting of EDTA and biotinylated phosphatidylinositol 3,4,5-trisphosphate. Finally, the detection buffer, consisting of a europium-labelled anti-GST monoclonal antibody, a GST-labelled GRP1 PH domain and streptavidin allophycocyanin, was added. The plate was read out via homogeneous time-resolved fluorescence (HTRF) and the corresponding signals were evaluated via the formula HTRF=10000×(Em665 nm/Em620 nm).

PI3K p110β/p85α (human) = PI3K p110β/p85α (human) (Homo sapiens (Human), UniProt P42338); test: PI3K p110β/p85α (human), non-radioactive assay (HTRF); assay type: biochemical; settings: read-out: IC50 (PI3Kbeta)
Protocol: PI3K p110β/p85a (Human), Non-Radioactive Assay
PI3K p110β/p85α (human) was incubated in an assay buffer comprising 10 μM phosphatidylinositol 4,5-bisphosphate and MgATP (concentration as necessary). The reaction was initiated by addition of MgATP solution. After an incubation time of 30 min at room temperature, the reaction was stopped by addition of a solution consisting of EDTA and biotinylated phosphatidylinositol 3,4,5-trisphosphate. Finally, the detection buffer, consisting of a europium-labelled anti-GST monoclonal antibody, a GST-labelled GRP1 PH domain and streptavidin allophycocyanin, was added. The plate was read out via homogeneous time-resolved fluorescence (HTRF) and the corresponding signals were evaluated via the formula HTRF=10000×(Em665 nm/Em620 nm).

PI3K p110δ/p85α (human) = PI3K p110δ/p85α (human) (Homo sapiens (Human), UniProt O00329); test: PI3K p110δ/p85α (human), non-radioactive assay (HTRF); assay type: biochemical; settings: read-out: IC50 (PI3Kdelta)
Protocol: as §1, with “After an” for “After”, “incubation time of 30 min” for “incubation”, “temperature,” for “temperature for 40 minutes,”

PI3K (p120γ) (human) = PI3K (p120γ) (human) (Homo sapiens (Human), UniProt P48736); test: PI3K (p120γ) (human), non-radioactive assay (HTRF); assay type: biochemical; settings: read-out: IC50 (PI3Kgamma)
Protocol: The reaction was initiated by addition of MgATP solution. After an incubation time of 30 min at room temperature, the reaction was stopped by addition of a solution consisting of EDTA and biotinylated phosphatidylinositol 3,4,5-trisphosphate. Finally, the detection buffer, consisting of a europium-labelled anti-GST monoclonal antibody, a GST-labelled GRP1 PH domain and streptavidin allophycocyanin, was added.

Sequence of human recombinant ATM (Q13315 whole entry): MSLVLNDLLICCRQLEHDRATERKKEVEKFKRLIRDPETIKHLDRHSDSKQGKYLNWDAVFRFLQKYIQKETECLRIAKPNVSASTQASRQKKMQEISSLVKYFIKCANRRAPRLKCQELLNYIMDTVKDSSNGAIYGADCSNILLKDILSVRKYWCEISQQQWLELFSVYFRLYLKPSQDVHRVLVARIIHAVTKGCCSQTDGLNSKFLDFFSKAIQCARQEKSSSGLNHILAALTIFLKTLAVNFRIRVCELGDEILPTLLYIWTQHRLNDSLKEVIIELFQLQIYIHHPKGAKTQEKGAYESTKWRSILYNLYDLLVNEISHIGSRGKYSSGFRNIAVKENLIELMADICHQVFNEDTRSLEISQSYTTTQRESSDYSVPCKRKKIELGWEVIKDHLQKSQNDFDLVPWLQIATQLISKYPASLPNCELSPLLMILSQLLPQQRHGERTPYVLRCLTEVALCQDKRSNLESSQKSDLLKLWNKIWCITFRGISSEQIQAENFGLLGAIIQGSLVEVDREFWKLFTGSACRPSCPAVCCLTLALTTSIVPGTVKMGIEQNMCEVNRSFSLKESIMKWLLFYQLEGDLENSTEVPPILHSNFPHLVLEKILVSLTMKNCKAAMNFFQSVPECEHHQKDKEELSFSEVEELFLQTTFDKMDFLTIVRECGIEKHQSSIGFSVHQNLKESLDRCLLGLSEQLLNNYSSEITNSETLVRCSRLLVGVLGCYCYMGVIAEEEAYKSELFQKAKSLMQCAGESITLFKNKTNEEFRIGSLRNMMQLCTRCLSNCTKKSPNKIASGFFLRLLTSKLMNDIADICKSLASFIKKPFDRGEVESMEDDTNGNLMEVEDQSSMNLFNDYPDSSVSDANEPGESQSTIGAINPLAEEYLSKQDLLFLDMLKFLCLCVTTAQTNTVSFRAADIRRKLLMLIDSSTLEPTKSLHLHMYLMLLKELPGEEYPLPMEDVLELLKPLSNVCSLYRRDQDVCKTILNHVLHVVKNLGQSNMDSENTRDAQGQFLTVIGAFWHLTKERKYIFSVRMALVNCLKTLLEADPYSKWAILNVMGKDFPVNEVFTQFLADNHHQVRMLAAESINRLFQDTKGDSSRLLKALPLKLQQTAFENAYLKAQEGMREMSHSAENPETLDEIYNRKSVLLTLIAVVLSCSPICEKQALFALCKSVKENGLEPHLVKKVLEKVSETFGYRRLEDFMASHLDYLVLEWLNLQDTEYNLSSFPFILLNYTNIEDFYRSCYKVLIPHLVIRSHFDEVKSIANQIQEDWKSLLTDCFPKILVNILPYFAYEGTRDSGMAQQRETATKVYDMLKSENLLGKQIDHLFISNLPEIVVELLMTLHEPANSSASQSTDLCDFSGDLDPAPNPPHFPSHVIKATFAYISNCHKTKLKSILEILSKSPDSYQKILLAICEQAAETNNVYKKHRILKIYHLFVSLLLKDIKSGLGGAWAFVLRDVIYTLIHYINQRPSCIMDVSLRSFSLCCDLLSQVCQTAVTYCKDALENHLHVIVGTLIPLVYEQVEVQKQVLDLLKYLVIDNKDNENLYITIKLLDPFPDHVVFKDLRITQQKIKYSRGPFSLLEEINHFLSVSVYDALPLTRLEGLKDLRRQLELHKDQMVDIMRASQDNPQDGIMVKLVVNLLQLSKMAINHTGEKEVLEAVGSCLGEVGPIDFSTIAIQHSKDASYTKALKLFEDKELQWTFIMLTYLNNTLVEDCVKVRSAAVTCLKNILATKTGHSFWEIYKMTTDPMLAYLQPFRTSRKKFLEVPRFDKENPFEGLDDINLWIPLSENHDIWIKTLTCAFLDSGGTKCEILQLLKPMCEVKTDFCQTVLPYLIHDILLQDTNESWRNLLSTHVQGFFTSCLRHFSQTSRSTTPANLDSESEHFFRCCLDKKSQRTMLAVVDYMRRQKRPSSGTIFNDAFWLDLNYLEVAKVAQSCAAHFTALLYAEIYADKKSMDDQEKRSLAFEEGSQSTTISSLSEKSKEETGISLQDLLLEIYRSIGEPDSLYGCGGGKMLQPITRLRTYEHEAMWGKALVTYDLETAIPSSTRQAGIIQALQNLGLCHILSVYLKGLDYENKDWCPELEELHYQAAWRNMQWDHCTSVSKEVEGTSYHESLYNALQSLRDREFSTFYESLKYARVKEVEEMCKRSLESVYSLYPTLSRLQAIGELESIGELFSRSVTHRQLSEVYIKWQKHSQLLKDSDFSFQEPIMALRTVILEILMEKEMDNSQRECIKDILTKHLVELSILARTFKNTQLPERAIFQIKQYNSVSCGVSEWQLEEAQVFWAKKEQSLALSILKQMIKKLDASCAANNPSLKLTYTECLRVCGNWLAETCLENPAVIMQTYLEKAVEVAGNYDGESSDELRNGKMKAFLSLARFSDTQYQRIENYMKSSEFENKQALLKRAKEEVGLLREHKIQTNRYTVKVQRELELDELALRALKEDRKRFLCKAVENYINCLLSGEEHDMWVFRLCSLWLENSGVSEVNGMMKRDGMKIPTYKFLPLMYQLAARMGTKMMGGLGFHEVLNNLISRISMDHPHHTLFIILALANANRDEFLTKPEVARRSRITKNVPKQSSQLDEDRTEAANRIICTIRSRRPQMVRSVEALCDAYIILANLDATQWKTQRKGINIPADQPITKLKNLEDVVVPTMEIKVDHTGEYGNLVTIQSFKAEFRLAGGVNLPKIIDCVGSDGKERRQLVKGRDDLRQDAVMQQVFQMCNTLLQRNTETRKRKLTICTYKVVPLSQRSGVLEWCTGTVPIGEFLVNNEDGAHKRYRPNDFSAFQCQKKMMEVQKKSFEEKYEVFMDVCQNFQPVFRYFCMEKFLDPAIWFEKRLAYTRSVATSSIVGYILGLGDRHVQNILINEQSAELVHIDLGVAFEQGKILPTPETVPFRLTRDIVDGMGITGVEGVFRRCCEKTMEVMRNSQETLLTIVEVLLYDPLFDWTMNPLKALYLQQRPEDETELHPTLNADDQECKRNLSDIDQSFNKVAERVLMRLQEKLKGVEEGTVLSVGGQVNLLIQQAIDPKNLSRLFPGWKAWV
Sequence of PI3K p110β/p85α (human) (P42338 whole entry): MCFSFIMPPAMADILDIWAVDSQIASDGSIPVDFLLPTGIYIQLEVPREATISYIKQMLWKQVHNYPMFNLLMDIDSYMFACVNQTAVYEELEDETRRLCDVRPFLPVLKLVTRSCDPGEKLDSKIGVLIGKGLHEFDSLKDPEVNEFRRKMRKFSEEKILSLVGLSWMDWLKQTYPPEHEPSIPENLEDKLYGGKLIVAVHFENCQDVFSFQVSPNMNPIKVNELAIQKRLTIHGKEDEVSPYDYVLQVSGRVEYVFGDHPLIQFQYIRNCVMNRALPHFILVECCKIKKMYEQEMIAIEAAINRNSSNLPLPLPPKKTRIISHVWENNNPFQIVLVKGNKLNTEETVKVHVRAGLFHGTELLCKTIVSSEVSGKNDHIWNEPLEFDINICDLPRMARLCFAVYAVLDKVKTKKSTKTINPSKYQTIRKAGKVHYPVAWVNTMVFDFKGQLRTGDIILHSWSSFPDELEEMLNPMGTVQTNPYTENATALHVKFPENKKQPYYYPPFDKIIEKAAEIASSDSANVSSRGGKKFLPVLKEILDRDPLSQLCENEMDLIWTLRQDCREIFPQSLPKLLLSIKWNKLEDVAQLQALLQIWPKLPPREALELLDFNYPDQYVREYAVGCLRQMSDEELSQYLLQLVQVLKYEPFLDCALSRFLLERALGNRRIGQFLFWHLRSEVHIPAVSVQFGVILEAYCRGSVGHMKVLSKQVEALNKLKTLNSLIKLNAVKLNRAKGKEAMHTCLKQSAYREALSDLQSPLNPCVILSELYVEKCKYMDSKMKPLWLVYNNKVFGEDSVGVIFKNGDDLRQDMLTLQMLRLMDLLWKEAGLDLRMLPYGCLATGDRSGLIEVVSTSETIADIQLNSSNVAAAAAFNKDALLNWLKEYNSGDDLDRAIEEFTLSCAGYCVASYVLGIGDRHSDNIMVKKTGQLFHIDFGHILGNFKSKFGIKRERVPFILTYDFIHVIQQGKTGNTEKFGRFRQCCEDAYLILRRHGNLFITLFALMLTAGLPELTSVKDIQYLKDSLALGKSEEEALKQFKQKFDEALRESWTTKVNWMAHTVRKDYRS
Sequence of PI3K p110β/p85α (human) (P27986 whole entry partner): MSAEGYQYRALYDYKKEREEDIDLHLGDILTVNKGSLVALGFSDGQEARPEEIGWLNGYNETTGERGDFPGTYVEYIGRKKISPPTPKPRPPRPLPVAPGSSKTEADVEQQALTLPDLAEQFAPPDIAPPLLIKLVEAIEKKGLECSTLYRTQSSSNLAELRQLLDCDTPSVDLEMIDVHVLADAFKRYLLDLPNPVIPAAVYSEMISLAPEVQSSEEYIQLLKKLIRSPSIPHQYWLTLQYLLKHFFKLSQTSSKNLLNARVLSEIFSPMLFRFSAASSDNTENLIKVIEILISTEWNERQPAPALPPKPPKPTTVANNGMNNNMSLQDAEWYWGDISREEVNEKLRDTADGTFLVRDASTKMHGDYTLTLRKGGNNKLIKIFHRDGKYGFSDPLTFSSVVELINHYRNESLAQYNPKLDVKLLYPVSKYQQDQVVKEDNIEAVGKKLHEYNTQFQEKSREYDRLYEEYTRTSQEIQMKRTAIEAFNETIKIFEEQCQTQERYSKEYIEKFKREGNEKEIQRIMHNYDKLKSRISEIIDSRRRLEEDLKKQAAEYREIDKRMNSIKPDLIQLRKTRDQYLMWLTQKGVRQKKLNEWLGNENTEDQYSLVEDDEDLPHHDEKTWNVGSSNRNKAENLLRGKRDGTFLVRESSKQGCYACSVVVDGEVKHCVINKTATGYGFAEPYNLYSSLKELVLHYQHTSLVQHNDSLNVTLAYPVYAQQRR

SMILES: CCn1cc(-c2cc3c(cc2OC)ncc2c3n(-c3c(F)cncc3OC)c(=O)n2C)cn1 [Example 13]
- IC50 (human recombinant ATM): < 0.001 µM
- IC50 (human recombinant ATM; 10 μM ATP, p53 substrate): < 0.001 µM
- IC50 [1]: < 0.2 µM
- IC50 (mTOR (human)): > 10 µM
- IC50 (PI3K p110α/p85α (human)): > 5 µM
- IC50 (PI3K p110β/p85α (human)): > 30 µM
- IC50 (PI3K p110δ/p85α (human)): > 10 µM
- IC50 (PI3K (p120γ) (human)): > 30 µM
